Experimental data taken from patent US6844465B2, “Method for preparing highly stable crystals of aspartame derivative” (Ajinomoto Co., Inc., priority 1998, dated 2005).

Legend:
[1] = Stability test at 70° C. of crystals (remaining ratio of N-(3,3-dimethylbutyl)-APM); type: physicochemical
Method: Then, the obtained G-type crystals, D-type crystals and A-type crystals of N-(3,3-dimethylbutyl)-APM were tested at 70° C., concerning their stability. […] The relationship between the storage time and the remaining ratio of N-(3,3-dimethylbutyl)-APM in this test will be shown below in Table 1.

[2] = on the weight basis, cited from earlier work

COC(=O)[C@H](Cc1ccccc1)NC(=O)[C@H](CC(=O)O)NCCC(C)(C)C [A-type crystals, N-[N-(3,3-dimethylbutyl)-L-α-aspartyl]-L-phenylalanine methyl ester]
Remaining Ratio (wt. %) ([1]; time elapsed 0 hrs, listed as A): 95 wt. % | Remaining Ratio (wt. %) ([1]; time elapsed 100 hrs, listed as A): 94 wt. % | Remaining Ratio (wt. %) ([1]; time elapsed 271 hrs): 96 wt. % | Remaining Ratio (wt. %) ([1]; time elapsed 271 hrs, listed as A): 96 wt. %

COC(=O)[C@H](Cc1ccccc1)NC(=O)[C@H](CC(=O)O)NCCC(C)(C)C [G-type crystals, N-[N-(3,3-dimethylbutyl)-L-α-aspartyl]-L-phenylalanine methyl ester]
Remaining Ratio (wt. %) ([1]; time elapsed 0 hrs, listed as G): 96 wt. % | Remaining Ratio (wt. %) ([1]; time elapsed 100 hrs, listed as G): 48 wt. % | Remaining Ratio (wt. %) ([1]; time elapsed 271 hrs): 18 wt. % | Remaining Ratio (wt. %) ([1]; time elapsed 271 hrs, listed as G): 18 wt. %

COC(=O)[C@H](Cc1ccccc1)NC(=O)[C@H](CC(=O)O)NCCC(C)(C)C [D-type crystals, N-[N-(3,3-dimethylbutyl)-L-α-aspartyl]-L-phenylalanine methyl ester]
Remaining Ratio (wt. %) ([1]; time elapsed 0 hrs, listed as D): 95 wt. % | Remaining Ratio (wt. %) ([1]; time elapsed 100 hrs, listed as D): 96 wt. % | Remaining Ratio (wt. %) ([1]; time elapsed 271 hrs): 77 wt. % | Remaining Ratio (wt. %) ([1]; time elapsed 271 hrs, listed as D): 77 wt. %

COC(=O)[C@H](Cc1ccccc1)NC(=O)[C@H](CC(=O)O)NCCC(C)(C)C [N-(3,3-dimethylbutyl)-ATM, N-[N-(3,3-dimethylbutyl)-L-α-aspartyl]-L-phenylalanine methyl ester]
sweetening potency relative to aspartame ([2]; times that of aspartame): at least 50 times | sweetening potency relative to sucrose (table sugar) ([2]; times that of sucrose): about 10,000 times
